Among the data in article PMC5353720 (2017) are binding values, retold here.

The test system of this test is PSA-aptamer (DNA, aptamer) TTTTTAATTAAAGCTCGCCATCAAATAGCTTT
The experiment in a line: extended-gate field-effect transistor (AptaFET). The note with it: PBS, 1 mM MgCl2 (incubation); PBS (readout); 500 nM highest tested; shift 2.7 ± 0.3 mV against 22.3 mV on TFV-aptamer; immobilised aptamer.

In the case of `C[C@H](Cn1cnc2c(N)ncnc21)OCP(=O)(O)O`, the binding result is listed as “no”.
